# Source: patent US20210163451A1, “METHODS AND COMPOSITIONS FOR SUBSTITUTED 2,5-DIKETOPIPERAZINE ANALOGS” (University of Florida Research Foundation, Inc., priority 2018, published 2021)
# Marks after values point to notes of the source that are not given here.
# Experiments:
# TxtB = TxtB substrate scope in TxtA/TxtB reactions; format: biochemical, S. scabies 87.22; set-up: key to TxtB substrate: +++++: Five ‘+’ represents the strong reactivity; ++++: The number of ‘+’ represents the reactivities of the enzymes to the substrate; +++: The number of ‘+’ represents the reactivities of the enzymes to the substrate; ++: The number of ‘+’ represents the reactivities of the enzymes to the substrate; +: one represent very weak reactivities
# Method: Using the above strategy, it was determined that TxtB accepted only I-Trp among all 20 natural amino acids in the reaction (FIG. 2B, Table 1). When incubating with 15 I-Trp analogs with various substituents at α-position or C4, C5, C6 and C7 of I-Trp indole (Table 1), TxtB was able to use 4-F, 4-Me, 5-F, and 6-F-tryptophan as substrates in the DKP synthesis (Table 1). […] Indeed, the Micklefield group recently produced several thaxtomin analogs with C4-H, F, Cl, Br, or Me when expressing txtA/B in S. albus. The advanced understanding of substrate scopes of TxtA/B led to enzymatic creation of a library of 30 DKPs with 5 I-Trp analogs and 6 I-Phe analogs (FIG. 3C). The production of all DKPs were confirmed in HPLC analysis and verified in high resolution LC-MS analysis (Table 2).
# (§1) TxtA/B reaction: 100 mM Tris-Cl (PH=8.0), 0.5 mM Nitro-L-tryptophan or L-tryptophan, 0.55 mM L-Phenylalanine, 3.2 μM txtA, 14.5 μM txtB, 2.5 mM ATP and 2 mM SAM in 100 μL reaction. 21° C. shaken with 400 rpm for 20 hours.
# To probe the basis of chemical diversity of Thx DKP scaffold, next characterized was the substrate scopes of TxtA and TxtB. […] Bulkier aryl substituents decreased enzyme activity. […] From the modelled structure of TxtA adenylation (A) domain (FIG. 23), it was identified that Trp225 likely controls the binding of bulky L-Phe analogues. Indeed, the TxtA W225S mutant [Kries, H. et al. Angew. Chem. Int. Ed. Engl. […] We confirmed the product as p-azido-Thx D by HRMS, MS/MS, 1D and 2D NMR analysis (FIGS. 24-25). The substrate preference of TxtB was then assessed. […] Additionally, TxtB utilized 4F-L-, 5F-L-, 4Me-D,L- and 6F-D,L-Trp out of 15 L-Trp analogues carrying various substituents (Table 7) as substrates to synthesize desnitro dimethylated DKP analogues (FIG. 22). […] The tolerance to small modifications on L-Trp indole by TxtB agreed with a recent in vivo study by the Micklefield group [Winn, M. et al. Angew. Chem. Int. Ed. Engl. 2018 57:6830-6833]. […] Chem. Biol. 2018 14: 428-430].
# (§2) The TxtA/B reaction solutions (100 μl) typically contained 100 mM Tris-Cl, pH 9.0, 0.5 mM amino acid substrates, 10 mM MgCl2, 2.5 mM ATP and 2 mM SAM. The reactions were initiated by adding 1.2 μM TxtA and 1.3 μM TxtB (final concentration) and incubated at 21° C. with shaking at 400 rpm. After 30 h, the reactions were terminated by mixing with 200 μl of methanol. Quenched solutions were centrifuged at 4° C., 16,000×g for 15 min and clear supernatants were collected and subjected to HPLC and LCMS analysis as detailed below. All experiments were repeated independently at least twice. The reaction solutions of TB14 and TxtA and TxtB were the same as those of TxtA and TxtB except the inclusion of 1.5 mM NAPDH, 0.75 mM NOC-5 and 11.1 μM TB14. The reactions were run for 30 h and the products were analyzed and quantitated as described above.
# TxtA = TxtA substrate scope in TxtA/TxtB reactions; format: biochemical, S. scabies 87.22
# Method: To explore whether TxtA/B are versatile to generate a library of thaxtomin D analogs, enzymes' substrate tolerance was then examined in the reactions. […] Subsequently, the substrate scope of TxtA with 17 I-Phe analogs was assessed with various substituents at α-position or C2, C3, and C4 of the aryl group (Table 1).
# as §1
# (§3) TB14 and txtA/B coupling reaction: 100 mM Tris-Cl (PH=8.0), 0.5 mM L-tryptophan, 0.55 mM L-Phenylalanine, 1.5 mM NAPDH, 0.75 mM NOC-5, 3.2 μM txtA, 14.5 μM txtB, 2.5 mM ATP, 2 mM SAM and 11.1 μM TB14 in 100 μL reaction. Opened to air, 21° C. shaken with 400 rpm for 30 hours.
# (§4) To probe the basis of chemical diversity of Thx DKP scaffold, next characterized was the substrate scopes of TxtA and TxtB. […] Chem. Int. Ed. Engl. […] The substrate preference of TxtB was then assessed. […] Chem. Int. Ed. Engl. 2018 57:6830-6833]. […] Chem. Biol. 2018 14: 428-430].
# as §2
# TxtA-W225S = TxtA-W225S mutant substrate scope in TxtA/TxtB reactions; format: biochemical, S. scabies 87.22; conditions: for substrate preference of TxtAW225S mutant: Example 1; for TxtA-W225S substrate: Table 1, Example 1; for TxtAW225S substrate: Table 7, Example 2
# Method: The nitro group of thaxtomins is essential for herbicidal activity, and is installed by TxtE. […] NADPH, NOC-5 as NO donor and SAM were included in the reaction. […] To further expand the substrate scope of TxtA, Trp225 was mutated into Ser in TxtA.
# as §1, §3, §4, §2
# radish seedlings = assay: Herbicidal activity in radish seedling assay; format: in vivo; conditions: total seedling length after 7 days on agar, 0 to 2 μM, mean±SD (n=4)
# Method: Established protocols were followed to quantitate thaxtomin herbicidal activity in radish seedling assay (Jiang, G. et al. Appl Environ Microbiol 2018 84:e00164-18). In brief, serial concentrations (0 to 2 μM) of thaxtomins in DMSO were added into 20 mL of 1.5% warm agar solution with gentle agitation to prepare agar plates. DMSO was included as the negative control. Radish seeds (Burpee) were surface disinfested, pregerminated and selected when the radicle was […] and just emerged from the seed coat. Six radish seedlings were equally located on the surface of each plate with root ends pointed to the same direction. Agar plates were covered, sealed with Parafilm. Seedlings in agar plates grew at room temperature under 14-16 h fluorescent light per day for 7 days, and total seedling lengths were then recorded. The longest and the shorted seedlings would be excluded from the data analysis. Percent inhibition relative to the mean growth response in negative control was then calculated. Dose-response curves were fit to a four-parameter logistic model, and I50 values were determined from these curves.
# [1] = system: TB14, TCB14, TxtA and TxtB; assay: Conversion to thaxtomin A analogues in the reactions of TB14, TCB14, TxtA and TxtB; format: biochemical; conditions: thaxtomin A analogue product from the listed L-Phe and L-Trp analogues
# TB14, TxtA and TxtB = assay: Conversion to nitro-DKPs in the reactions of TB14, TxtA and TxtB; format: biochemical; conditions: nitro-DKP product from the listed L-Phe and L-Trp analogues
# [2] = Example 1, TxtA/B reaction with 4-NO2-L-Trp as TxtB substrate
# [3] = Example 2, reaction of TB14, TxtA and TxtB
smiles,measurement,setting,value
"Cc1cccc2[nH]cc(CC(N)C(=O)O)c12 (racemic) [4Me-D,L-Tryptophan]",TxtB substrate,"TxtB; Table 1, Example 1",++
same,TxtB substrate,"TxtB; Table 7, Example 2",+++
"NC(Cc1c[nH]c2cc(F)ccc12)C(=O)O (racemic) [6F-Tryptophan, 6F-D,L-tryptophan]",TxtB substrate,"TxtB; Table 1, Example 1",++
same,TxtB substrate,"TxtB; Table 7, Example 2",+
N[C@@H](Cc1ccccc1Br)C(=O)O [2Br-L-phenylalanine],TxtA substrate,"TxtA; Table 1, Example 1",+
same,TxtA substrate,"TxtA; Table 7, Example 2",+
N[C@@H](Cc1ccccc1F)C(=O)O [2F-L-phenylalanine],"relative activity of TxtA toward substrate, relative to L-Phe",TxtA; [2],same level of activity
same,"relative activity of TxtA toward substrate, relative to L-Phe",TxtA; [3],~73%
same,TxtA substrate,"TxtA; Table 1, Example 1",++++
same,TxtA substrate,"TxtA; Table 7, Example 2",++++
Cc1ccccc1C[C@H](N)C(=O)O [2Me-L-phenylalanine],TxtA substrate,"TxtA; Table 1, Example 1",+++
same,TxtA substrate,"TxtA; Table 7, Example 2",++
N[C@@H](Cc1cccc(Br)c1)C(=O)O [3Br-L-phenylalanine],TxtA substrate,"TxtA; Table 1, Example 1",+
same,TxtA substrate,"TxtA; Table 7, Example 2",+
N[C@@H](Cc1cccc(Cl)c1)C(=O)O [3Cl-L-phenylalanine],TxtA substrate,"TxtA; Table 1, Example 1",++
same,TxtA substrate,"TxtA; Table 7, Example 2",+
N[C@@H](Cc1cccc(F)c1)C(=O)O [3F-L-phenylalanine],"relative activity of TxtA toward substrate, relative to L-Phe",TxtA; [2],same level of activity
same,"relative activity of TxtA toward substrate, relative to L-Phe",TxtA; [3],equally active
same,TxtA substrate,"TxtA; Table 1, Example 1",+++++
same,TxtA substrate,"TxtA; Table 7, Example 2",+++++
Cc1cccc(C[C@H](N)C(=O)O)c1 [3Me-L-phenylalanine],"relative activity of TxtA toward substrate, relative to L-Phe",TxtA; [2],about 12%
same,"relative activity of TxtA toward substrate, relative to L-Phe",TxtA; [3],about 27%
same,TxtA substrate,"TxtA; Table 1, Example 1",++
same,TxtA substrate,"TxtA; Table 7, Example 2",++
[N-]=[N+]=Nc1ccc(C[C@H](N)C(=O)O)cc1 [4-Azidophenylalanine],"relative activity of TxtA toward substrate, relative to L-Phe",TxtA; [3],did not accept
same,substrate preference of TxtAW225S mutant,TxtA-W225S,strong preference
same,substrate preference of TxtA W225S mutant,"TxtA-W225S; Example 2, reaction with TB14, TxtA and TxtB",strong preference over L-Phe
same,TxtA-W225S substrate,TxtA-W225S,++
same,TxtAW225S substrate,TxtA-W225S,++
N[C@@H](Cc1c[nH]c2cccc([N+](=O)[O-])c12)C(=O)O [4-nitro-L-Tryptophan],TxtB substrate,"TxtB; Table 1, Example 1",+++++
same,TxtB substrate,"TxtB; Table 7, Example 2",+++++
N[C@@H](Cc1ccc(Br)cc1)C(=O)O [4Br-L-phenylalanine],TxtA substrate,"TxtA; Table 1, Example 1",+
same,TxtA substrate,"TxtA; Table 7, Example 2",+
N[C@@H](Cc1ccc(Cl)cc1)C(=O)O [4Cl-L-phenylalanine],TxtA substrate,"TxtA; Table 1, Example 1",++
same,TxtA substrate,"TxtA; Table 7, Example 2",+
"N[C@@H](Cc1c[nH]c2cccc(F)c12)C(=O)O [4F--Tryptophan, 4F-L-tryptophan]",TxtB substrate,"TxtB; Table 1, Example 1",+
same,TxtB substrate,"TxtB; Table 7, Example 2",+
N[C@@H](Cc1ccc(F)cc1)C(=O)O [4F-L-phenylalanine],"relative activity of TxtA toward substrate, relative to L-Phe",TxtA; [2],~72%
same,TxtA substrate,"TxtA; Table 1, Example 1",+++
same,TxtA substrate,"TxtA; Table 7, Example 2",++
Cc1ccc(C[C@H](N)C(=O)O)cc1 [4Me-L-phenylalanine],TxtA substrate,"TxtA; Table 1, Example 1",+++
same,TxtA substrate,"TxtA; Table 7, Example 2",+
"Cc1ccc(C[C@@]2(O)C(=O)N(C)[C@@H](Cc3c[nH]c4cccc([N+](=O)[O-])c34)C(=O)N2C)cc1O [4′Me-Thx A, 4′Me-thaxtomin A]",IC50,"radish seedlings; Raphanus sativus, 168 h",410 ± 10 nM
"Cc1ccc(C[C@H]2C(=O)N(C)[C@@H](Cc3c[nH]c4cccc([N+](=O)[O-])c34)C(=O)N2C)cc1 [4′Me-Thx D, 4′Me-thaxtomin D]",IC50,"radish seedlings; Raphanus sativus, 168 h",480 ± 40 nM
"N[C@@H](Cc1c[nH]c2ccc(F)cc12)C(=O)O [5F-Tryptophan, 5F-L-tryptophan]",TxtB substrate,"TxtB; Table 1, Example 1",++
same,TxtB substrate,"TxtB; Table 7, Example 2",++
"CN1C(=O)[C@](O)(Cc2cccc(O)c2)N(C)C(=O)[C@@H]1Cc1c[nH]c2cccc([N+](=O)[O-])c12 [Compound 1, thaxtomin A, reference compound]",IC50,radish seedlings,390 ± 30 nM
same,Conversion rate %,[1],6.84%
N[C@@H](Cc1ccccc1)C(=O)O [L-phenylalanine],TxtA substrate,"TxtA; Table 1, Example 1",+++++^a
same,TxtA substrate,"TxtA; Table 7, Example 2",+++++
same,TxtA-W225S substrate,TxtA-W225S,+
same,TxtAW225S substrate,TxtA-W225S,+
N[C@@H](Cc1c[nH]c2ccccc12)C(=O)O [L-tryptophan],"TxtB activity, times less active than 4-NO2-L-Trp","TxtB; Example 2, reaction without TB14",12 times
same,TxtB substrate,"TxtB; Table 1, Example 1",+
same,TxtB substrate,"TxtB; Table 7, Example 2",+
N[C@@H](Cc1ccc(O)cc1)C(=O)O [L-tyrosine],substrate preference of TxtAW225S mutant,TxtA-W225S,lower activity
same,TxtA-W225S substrate,TxtA-W225S,++
CN1C(=O)[C@H](Cc2c[nH]c3cccc([N+](=O)[O-])c23)N(C)C(=O)[C@@H]1Cc1ccc(N=[N+]=[N-])cc1 [compound 42],Conversion rate %,TxtA-W225S; catalyzed by TxtB and TxtAW225S (with TB14),20.90%
Cc1ccc(C[C@H]2C(=O)N(C)[C@@H](Cc3c[nH]c4cccc([N+](=O)[O-])c34)C(=O)N2C)cc1 [compound 54],Conversion rate %,"TB14, TxtA and TxtB",15.69%
Cc1ccc(C[C@@]2(O)C(=O)N(C)[C@@H](Cc3c[nH]c4cccc([N+](=O)[O-])c34)C(=O)N2C)cc1O [compound 118],Conversion rate %,[1],3.98%
Cc1cccc2[nH]cc(CC3C(=O)N(C)C(Cc4ccccc4)C(=O)N3C)c12 (centres unmarked) [desnitro-4Me-Thx D],IC50,radish seedlings,1980 ± 20 nM
"CN1C(=O)[C@H](Cc2c[nH]c3cccc([N+](=O)[O-])c23)N(C)C(=O)[C@@H]1Cc1ccc(N=[N+]=[N-])cc1 [p-N3-Thx D, p-N3-thaxtomin D]",IC50,"radish seedlings; Raphanus sativus, 168 h",1290 ± 210 nM
